Entries after “also recorded” stand apart in the source; their conditions may differ. Where two headings read alike, the source gives them in different places.
Tests used:
[1] = system: nociceptive spinal reflexes; experiment: animal or person; assay type: in vivo, rabbit (male New Zealand white); conditions: for ED50: Oryctolagus cuniculus, iv; for Effect on baseline, facilitation and wind-up responses: all three measures, FIG. 1, 2, 4
Method: Male New Zealand white rabbits (2.5-3.5 kg) were anaesthetised by an injection of 0.9% alphaxalone and 0.3% alphadolone (Saffan) directly into an ear vein. A cervical spinalization was performed and the cerebral cortex removed (decerebration) allowing anaesthesia to be discontinued. The left hind limb was shaved and a bipolar recording electrode inserted into the biceps femoris/semitendinous muscle. A noxious stimulus was applied to the area of the receptive field of the motor units to the skin of the foot. Single shocks (1 ms square pulses; 2 times threshold) were applied at a rate of 1 per minute. The conditioning stimulus was 20 of these impulses at a rate of 1 Hz, producing wind-up. The baseline parameters were again applied 20 seconds following the conditioning stimulus, the first of these stimuli is termed the facilitation of the baseline response. Injections were administered at 15 minute intervals, the first two always being the relevant drug vehicle. The time-course of events throughout the experiment was as shown below:
t=0 mins: Dose with vehicle (i.v.).
t=40 sec: Begin baseline stimulation (1 per minute).
t=10 mins: Conditioning stimulus applied (20 @ 1 Hz; wind-up).
t=10 mins 40 secs: Baseline stimulation resumes (Initial baseline response equates to facilitation).
t=15 mins: Dose with vehicle (i.v.).
t=25 mins: Conditioning stimulus applied.
t=25 mins 40 secs: Baseline stimulation resumes.
t=30 mins: Dose with test compound (i.v.).
t=40 mins: Conditioning stimulus applied.
t=40 mins 40 secs: Baseline stimulation resumes.
t=45 mins and every 15 minutes thereafter: Drug treatment (i.v.).
t=55 mins and every 15 minutes thereafter: Conditioning stimulus applied.
40 seconds after each conditioning stimulus baseline stimulation is resumed.
In each experiment the values obtained to the second vehicle were used as the control response. Each of the values obtained with drug treatment was expressed as a percentage of the control response. In the case of changes in baseline the last four values obtained prior to the conditioning response were taken to represent baseline activity. The effect of drug treatment was determined by comparing the baseline post-drug to the control baseline. Four rabbits were used in each experiment unless otherwise stated.

[2] = system: morphine-induced emesis; conditions: ferrets; cited from earlier work
[3] = system: phenylbenzoquinone-induced writhing; conditions: Garret et al.; cited from earlier work
[4] = system: formalin test; conditions: Garret et al.; cited from earlier work
[5] = baseline, i.v., decerebrate, spinalized rabbit, read-out: Approximate ID50, inhibition of baseline firing rate
[6] = facilitation, i.v., decerebrate, spinalized rabbit, read-out: Approximate ID50, inhibition of facilitation
[7] = wind-up, i.v., decerebrate, spinalized rabbit, read-out: Approximate ID50, inhibition of wind-up

## COc1ccccc1CN[C@H]1CCCN[C@H]1c1ccccc1 [CP-99,994]
[1]; CP-99,994 1-100 μg/kg i.v.
  Facilitation of nociceptive spinal reflexes: reduce facilitation of nociceptive spinal reflexes
[1]; [5]
  ED50: 0.05 mg/kg
[1]; [6]
  ED50: 0.008 mg/kg
[1]; [7]
  ED50: 0.01 mg/kg
[1]; i.v.
  Effect on baseline, facilitation and wind-up responses: dose-dependent reduction in all three measures
[1]; rabbit, in vivo
  Antagonism of the anti-nociceptive effects of morphine by CP-99,994: not antagonised
  Effect of CP-99,994 and morphine given together on the nociceptive reflex: appeared to be additive to those of morphine
[2]
  Emetic response to morphine: attenuate the emetic response to morphine

## COc1ccccc1CN[C@@H]1CCCN[C@@H]1c1ccccc1 [CP-100,263]
[1]; [5]
  ED50: > 1 mg/kg
[1]; [6]
  ED50: > 1 mg/kg
[1]; [7]
  ED50: > 1 mg/kg
[1]; i.v.
  Effect on baseline, facilitation and wind-up responses: did not inhibit baseline, facilitation or wind-up responses; also recorded: lack of effect

## CN1CC[C@]23c4c5ccc(O)c4O[C@H]2[C@@H](O)C=C[C@H]3[C@H]1C5 [Morphine, morphine]
[1]; baseline, i.v., decerebrate, spinalized rabbit
  Approximate ID50, inhibition of baseline firing rate: 0.5 mg/kg
[1]; facilitation, i.v., decerebrate, spinalized rabbit
  Approximate ID50, inhibition of facilitation: 0.5 mg/kg
[1]; morphine 0.5 mg/kg i.v. prior to CP-99,994 dose response curve, FIG. 3
  Effect of morphine pre-treatment on CP-99,994 induced inhibition of each measure: failed to attenuate the CP-99,994 induced inhibition of each measure
[1]; wind-up, i.v., decerebrate, spinalized rabbit
  Approximate ID50, inhibition of wind-up: 0.5 mg/kg

## COc1ccccc1CC(=N)N1C[C@@H]2C(=O)CCC(c3ccccc3)(c3ccccc3)[C@@H]2C1 [RP 67,580]
[3]
  Analgesia potency relative to morphine, phenylbenzoquinone-induced writhing: potency comparable to that of morphine
[4]
  Analgesia potency relative to morphine, formalin test: potency comparable to that of morphine
